These are literature values, as cited in patent publication US20060140985A1, “Lansoprazole formulations and related processes and methods” (priority 2003, published 2006).

The structures appear in SMILES notation. Read-outs that look alike come from different tables or passages of the source.

Experiment in data set [1]: not given
This is another data set of the same source.

Experiment in data set [2]: not given
This is another data set of the same source.

Another data set relates to gastric acid secretion. To be noted: in vivo.

`Cc1c(OCC(F)(F)F)ccnc1C[S+]([O-])c1nc2ccccc2[nH]1` (centres unmarked) [Lansoprazole, 2-[[[3-methyl-4 (2,2,2-trifluoroethoxy)-2-pyridyl]methyl]sulfinyl]benzimidazole]: the “degradation in aqueous solution” value (aqueous solution, pH dependence) is listed as “degrades in aqueous solution, with the rate of degradation increasing with decreasing pH”. Besides, the “stability when exposed to light” value (light) was “stable when exposed to light for up to two months”. For the same compound, the metabolism entry in data set [1] (liver) was “extensively metabolized in the liver”. Besides, the plasma elimination half-life entry in data set [1] (plasma) is “less than two hours”. The solubility result is listed as “slightly soluble” in data set [2] (acetonitrile); “slightly soluble” in data set [2] (dichloromethane); “freely soluble” in data set [2] (dimethylformamide); “sparingly soluble” in data set [2] (ethanol); “very slightly soluble” in data set [2] (ether); “slightly soluble” in data set [2] (ethyl acetate). Besides, the values for the solubility entry in data set [2] (hexane), in data set [2] (methanol) and in data set [2] (water) were “practically insoluble”, “soluble” and “practically insoluble”, respectively. In the data set with gastric acid secretion, the “duration of acid inhibitory effect” value is on record as “more than twenty-four hours”.
